Data set [1] concerns sows in labor. The conditions noted are these: 150 μg, sows in labor before birth of the first pig; cited from earlier work.
For data set [2] the following is noted: relative to propranolol; cited from earlier work.
Data set [3] concerns sheep. The settings on record: 5 or 10 mg/kg BW; cited from earlier work.
Data set [4] relates to swine. The conditions noted are these: cited from earlier work.
Data set [5] concerns progesterone in plasma. Description: Example 1: progesterone in plasma by RIA around farrowing. It is filed as in vivo, swine. The settings on record: for Mean concentration of progesterone in plasma: n in parentheses; for p4 = concentration of progesterone in plasma: trt 2, individual animals. As for the experimental part: Blood samples. Blood samples were collected from all animals (including T1 and T2) prior to administration of test article at 7:30 am on days 112 and 113. In addition, a PM blood sample was collected beginning at approximately 1:30 pm on days 112 and 113. Additional blood samples were collected at 7:30 am and 1:30 pm on subsequent days (>or =day 114). The final blood sample was collected after farrowing was complete. All blood samples (7 ml) were collected using sodium heparin vacutainers. Samples were refrigerated, centrifuged, and plasma was separated within 2 hr after collection. One aliquot of each sample was sent to Cornell Veterinary Diagnostic Lab for progesterone analyses by RIA.
(§1) Data/Analyses. Response variables measured in this study were: hours from the time of the 1st dosing on day 112 post-breeding to birth of the 1st pig, hours from the 2nd dosing on day 113 to birth of the 1st pig, number of piglets that were alive at birth (born alive), stillborn (normal appearance term piglet, but dead at time of birth), and mummies (smaller than littermates, decayed at birth). The variables were analyzed using a mixed model analysis (proc mixed, SAS) with block as a random effect and treatment as a fixed effect. Concentrations of progesterone were analyzed using a repeated measure mixed model analysis, with block as a random effect and treatment as a fixed effect.

The test system of data set [6] is pregnant crossbred female swine. The data set is classed as in vivo.
Excerpt: The objectives of this study were to determine the effects of administration of the progesterone receptor antagonist CP161,258 on the concentration of progesterone, the time interval from the 1st administration of test article on day 112 to birth of the 1st pig, the time interval from the 2nd administration of test article to birth of the 1st pig, and the status of piglets at birth (alive, stillborn, mummies).
Animals. Twenty pregnant crossbred female swine were purchased and delivered to Terre Haute on approximately day 102-107 of gestation. These animals were placed in farrowing crates in building 608W. Animals assigned to T2 averaged 195 kg BW. Animals (sows and piglets) were euthanized within 48 hr post-farrowing or on day 116 post-mating. There was no estimate of pre-weaning mortality in this study.
Randomization of animals. Animals were ranked according to expected farrowing date and randomly assigned to treatment within blocks of 2 animals each.
Test article administration. […] For treatment group T2, test article was diluted to a concentration of 25 mg/ml in 50% propylene glycol and water, and stored refrigerated (2-8° C.). Test article was administered orally after the morning blood sample was collected. The volume administered was approximately 30 ml to deliver a dosage of 4 mg/kg BW. Animals were administered with approximately 30 ml of water following administration of test article.
Early/late farrowing. […] If animals farrowed before day 114, the final blood sample was collected after farrowing was complete.
as §1

Data set [7] has the same test system. Description: Example 2: induction of farrowing in pregnant gilts, oral CP161,258 (two doses or single dose) or intramuscular porcine relaxin. It is filed as in vivo. The conditions noted are these: for Hr, Dose d 112 To 1st pig ± SD / Hr, Dose d 113 To 1st pig ± SD: mean ± SD; for Piglet data: Born alive / Piglet data: Mummies / Piglet data: Stillborn: mean. As for the experimental part:
Animals. […] This BW was used to calculate the amount of test article to administer (T2 and T3).
Randomization of animals. Animals were ranked according to expected farrowing date and then randomly assigned to treatment within blocks of 4 animals each.
Test article administration. […] For treatment groups T2 and T3, test article was diluted (a suspension) to a concentration of 25 mg/ml in 50% propylene glycol and stored refrigerated (2-8° C.).
For treatment groups T2 and T3, animals were snared and test article was administered orally using a 60 ml syringe. […] One container of approximately 440 ml was mixed and used within each week of the 3 wk study. Each animal assigned to T2 or T3 also received approximately 30 ml of tap water to insure that test article was swallowed.
Porcine relaxin was diluted to a concentration of 1200 U/ml in sterile physiological saline on the first day of use. Diluted porcine relaxin was stored in a locked refrigerator and removed only when injections took place. Relaxin (1 ml-T4) was administered intramuscularly in the lower part of the ham of either leg with an 18-gauge, 1.5″ long needle attached to a 3 ml syringe.
Administration of test articles occurred between 7:30 am and 8:30 am on almost all days of the study.
Piglets. Response variables measured in this study were: hours from the 1st treatment to the birth of the 1st pig, number of piglets that were alive at birth (born alive), stillborn (normal appearance term piglet, but dead at time of birth), and mummies (smaller than littermates, decayed at birth). Animals were not processed (no iron shots, no clipping of needle teeth, no individual identification), but umbilical cords were clipped to […]. length if animals could not be euthanized within 2 days after birth.
Data/Analyses. […] Data were analyzed using a mixed model analysis with block as a random effect and treatment as a fixed effect (proc mixed, SAS).

[8] abbreviates: 4 mg/kg BW orally days 112 and 113.
Setting [9] is: T2: 4 mg/kg BW CP161,258 orally D 112 + 113, mean ± SD, n in parentheses.
[10] abbreviates: T2: 4 mg/kg BW orally D 112 + 113, mean per litter.
The mark [11] stands for this setting: T2: 4 mg/kg BW CP161,258 oral D 112 + 113, counted from (day 112).
[12] abbreviates: T2: 4 mg/kg BW oral D 112 + 113.
Setting [13] is: T3: 8 mg/kg BW CP161,258 oral D 113, counted from (day 113).
Setting [14] is: Treatment 2: 4 mg/kg oral days 112 and 113, individual animals, 4 mg/kg.
[15] abbreviates: Treatment 3: 8 mg/kg oral day 113, individual animals, 8 mg/kg.

The values that follow come from patent US20040074447A1, “Methods of reducing incidence of stillborn pigs by using progesterone receptor antagonists” (priority 2002, published 2004).

Values joined by “and” are separate entries in the source; they are usually repeats but may differ in a detail not shown here. Equal entries are not always repeated. Where two headings read alike, the source gives them in different places. Marks after values point to notes of the source that are not given here.

For the molecule `CC(C)(C)NCC(O)c1cc(Cl)c(N)c(Cl)c1` (stereo not shown) [clenbuterol], the delay of parturition result in data set [1] is recorded as “up to 15 hr”.

Consider `CC(C)NCC(O)COc1cccc2[nH]c3ccccc3c12` (stereo not shown) [carazolol], for which the “membrane stabilizing potential, less than that of propranolol” value in data set [2] is 13 fold.

Consider `C[C@]1(O)CC[C@H]2[C@@H]3CC[C@@]45O[C@]4(C)C(O)=C(C#N)C[C@]5(C)[C@H]3CC[C@@]21C` [Epostane], for which the “interval from oral administration to birth of lambs” value in data set [3] was 33 h. In data set [4] (oral, 5 or 10 mg/kg BW), the “interval from oral administration to birth of the first pig” value is “about 34 hr”.

Turning to `CC#CC1(O)CCC2C3CCC4=CC(=O)CCC4=C3C(c3ccc(N(C)C)cc3)CC21C` (stereo not shown) [CP161,258, 11-(4-Dimethylamino-phenyl)-17-hydroxy-13-methyl-17-prop-1-ynyl-1,2,6,7,8,11,12,13,14,15,16,17-dodecahydro-cyclopenta[a]phenanthren-3-one], the “concentrations of progesterone in plasma in the −24 hr period preceding parturition, compared to non-medicated controls” value in data set [5] (4 mg/kg orally days 112 and 113) is reported as “remained higher”. For the same molecule, the “Mean concentration of progesterone in plasma” value in data set [5] (Sample time 0 (immediately before farrowing), T2) was 7.5 (9) ng/ml; in data set [5] (Sample time 1 (within 12 hr after farrowing was complete), T2), 1.5 (9) ng/ml; in data set [5] (Sample time −1 relative to farrowing, T2), 12.3* (9) ng/ml; in data set [5] (Sample time −2 relative to farrowing, T2), 14.0* (8) ng/ml; in data set [5] (Sample time −3 relative to farrowing, T2), 14.5 (5) ng/ml; in data set [5] (Sample time −4 relative to farrowing, T2 4 mg/kg orally days 112 and 113), 14.2 (2) ng/ml. The “p4 = concentration of progesterone in plasma” value in data set [5] (time 0 (immediately before farrowing)) was 5.76 ng/mL and 8.12 ng/mL and 5.62 ng/mL and 9.45 ng/mL and 13.37 ng/mL and 4.95 ng/mL and 9.41 ng/mL and 5.64 ng/mL and 7.17 ng/mL; in data set [5] (time 1 (within 12 hr after farrowing was complete)), 2.05 ng/mL and 1.34 ng/mL and 0.82 ng/mL and 1.62 ng/mL and 1.95 ng/mL and 4.50 ng/mL and 1.64 ng/mL and 1.11 ng/mL and 0.79 ng/mL; in data set [5] (time −1) it was 8.27 ng/mL and 13.76 ng/mL and 13.88 ng/mL and 15.46 ng/mL and 18.89 ng/mL and 7.63 ng/mL and 8.18 ng/mL and 10.70 ng/mL and 16.70 ng/mL; in data set [5] (time −2), 12.42 ng/mL and 17.27 ng/mL and 13.89 ng/mL and 15.47 ng/mL and 13.96 ng/mL and 15.17 ng/mL and 10.92 ng/mL and 17.76 ng/mL; in data set [5] (time −3) it was 14.93 ng/mL and 13.88 ng/mL and 15.28 ng/mL and 14.66 ng/mL and 16.68 ng/mL; in data set [5] (time −4), 15.25 ng/mL and 13.49 ng/mL. In addition, the “time interval from the 1st administration to the onset of parturition, relative to non-medicated controls” value in data set [6] (4 mg/kg BW days 112 and 113 of gestation) was “half”. The “number of piglets born dead (stillborns), mean” value in data set [6] (setting [8]) stood at 0.1 pigs/litter. In addition, in data set [6] (setting [8]), the “percent of animals that farrowed the day following the first treatment (day 113, within 1 day)” value was 44% and 45%. The “percent of animals with onset of parturition within 2 days” value in data set [6] (setting [8]) was 100%. Further, the “percent of treated animals that farrowed on day 114” value in data set [6] (setting [8]) is on record as 56%. Moreover, in data set [6] (setting [9]), the “Hr, 1st dose d 112 To 1st pig ± SD” value was 36 ± 15 (9) Hr. Also, the “Hr, 2nd dose d 113 To 1st pig ± SD” value in data set [6] (setting [9]) was 36 ± 15 (9) Hr. The entries for the “Piglet data: Born alive” value in data set [6] (setting [10]), in data set [7] (setting [12]) and in data set [7] (T3: 8 mg/kg BW oral D 113) were 8.9 (9), 9.2 (13) and 8.6 (13), respectively. Moreover, the “Piglet data: Mummies” value is 0 (9) in data set [6] (setting [10]), 0.4* (13) in data set [7] (setting [12]) and 0.2 (13) in data set [7] (T3: 8 mg/kg BW oral D 113). In addition, the “Piglet data: Stillborn” value in data set [6] (setting [10]) is 0.1* (9); in data set [7] (setting [12]) it was 0.7 (13); in data set [7] (T3: 8 mg/kg BW oral D 113) it was 0.5 (13). This molecule also returned a Mummified fetuses in data set [6] (T2: 4 mg/kg orally days 112 and 113, individual animals) of 0. The figures for the “Hr, Dose d 112 To 1st pig ± SD” value in data set [7] (setting [11]) and in data set [7] (setting [13]) were 45 ± 26^a (13) Hr and 33 ± 20 (13) Hr, respectively. Moreover, the “Hr, Dose d 113 To 1st pig ± SD” value in data set [7] (setting [11]) was 45 ± 26^b (13) Hr; in data set [7] (setting [13]), 33 ± 20^c (13) Hr. Further, the “number of stillborns lower compared with T1 non-medicated controls” value in data set [7] (T2: 4 mg/kg days 112 and 113, numerically, not statistically) was found to be 0.4 pigs/litter. In addition, the “percent of animals that started farrowing on day 114” value is on record as 31% in data set [7] (T2: 4 mg/kg on days 112 and 113 (4/13)); 85% in data set [7] (T3: 8 mg/kg BW on day 113 (11/13)). In data set [7] (T2: 4 mg/kg on days 112 and 113 (7/13)), the “percent of animals that started farrowing on day 113” value is given as “Fifty-four”. Further, the “Reason (animals with incomplete data)” value in data set [7] (T2 CP161,258 D 112 + 113, individual animals) is “Dystocia”. Moreover, the “number of stillborns reduced compared with T1 non-medicated controls” value in data set [7] (T3: single dose 8 mg/kg BW day 113, numerically, not statistically) came to 0.6 pigs/litter. Also, the “Born Alive” value in data set [7] (setting [14]) was 8 and 13 (2×) and 10 (3×) and 9 (2×) and 7 and 2 and 12 and 6 and 11; in data set [7] (setting [15]), 6 (3×) and 13 and 12 and 10 (3×) and 7 and 14 and 11 and 4 and 3. The “Hr, 1st treatment to 1st pig” value in data set [7] (setting [14]) is 22.5 h and 24.5 h and 26.4 h and 28.6 h and 28.9 h and 32.1 h and 33.6 h and 45.7 h and 46 h and 46.3 h and 49.1 h and 96.3 h and 101 h; in data set [7] (setting [15]), 49 h and 96 h and 21.2 h and 23.7 h and 24.4 h and 24.5 h and 24.7 h and 25.1 h and 25.2 h and 25.3 h and 26.3 h and 27.1 h and 34.4 h and 93.8 h. For the same molecule, the Mummies in data set [7] (setting [14]) is 0 (9×) and 2 and 1 (3×); in data set [7] (setting [15]) it was 0 (10×) and 1 (3×). Moreover, the Still-born was 1 (9×) and 0 (4×) in data set [7] (setting [14]); 0 (8×) and 2 (2×) and 1 (3×) in data set [7] (setting [15]). Also, in data set [7] (single dose of 8 mg/kg BW), the “percent of animals that farrowed 24 to 27 hr post-dosing” value came to 70%. In addition, in data set [7] (single dose of 8 mg/kg BW), the “percent of animals that farrowed between 21 and 35 hr after dosing” value is listed as 85%. Besides, the induction of parturition entry in data set [4] (4 mg/kg body weight on days 111 and 112 post-breeding) is “effectively induced parturition”.
